43 molecules from ChEMBL document CHEMBL1201862, “PubChem BioAssay data set” (2004) can be followed below.

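Dose response: 5 concentrations. Exposure: 48 h. Format: 96-well plates. Endpoint: linear interpolation; highest concentration if not reached. Abbreviation: GI50, concentration required for 50% inhibition of growth.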 Active and inactive are the calls of the source. No stated cut-off is given here; in the data, active = GI50 up to about 1.1 µM and inactive = higher.

Among the test systems are DMS-114; XF498; KM-20L2; LXFL 529; RXF 631; MDA-MB-435; MDA-MB-231; DU-145; MDA-N.
Assay in all cases: NCI tumour cell line growth inhibition, 48 h

Consider `CC1NC(=O)C2=C1C(N)=NC(=O)C2` (stereo not drawn), for which the GI50 with DMS-114, with XF498, in the assay on KM-20L2 and in the assay on LXFL 529 was > 100 µM (inactive) each time.

For `CC(C)(O)/C=C/C(=O)[C@](C)(O)[C@H]1[C@H](O)C[C@@]2(C)[C@@H]3CC=C4[C@@H](C[C@H](O)C(=O)C4(C)C)[C@]3(C)C(=O)C[C@]12C` [CUCURBITACIN D], the GI50 is 0.199 µM (active) with DMS-114, 0.163 µM (active) with KM-20L2 and 0.073 µM (active) in the assay on LXFL 529.

For `CC(=O)n1nnc2ccc([N+](=O)[O-])cc21`, the GI50 in the assay on DMS-114, in the assay with XF498, in the assay with KM-20L2 and in the assay on LXFL 529 was > 100 µM (inactive) in each case.

For the molecule `CCOC(=O)/C=C1\Oc2ccccc2C1(C)O` (stereo not drawn), the GI50 in the assay with DMS-114, in the assay on KM-20L2 and with LXFL 529 was > 100 µM (inactive) throughout.

As for `C[C@H]1COC(c2ccccn2)=N1`, the GI50 in the assay on XF498 and with KM-20L2 was > 100 µM (inactive) throughout.

Regarding `CC(=O)C1CC(C)=CCC12C(=O)Nc1ccccc12` (stereo not drawn), the GI50 in the assay with DMS-114, with XF498, in the assay with KM-20L2, in the assay on LXFL 529 and in the assay on RXF 631 was > 100 µM (inactive) in each case.

Regarding `NC(=O)c1ccccc1NC(=O)C(=O)Nc1n[nH]c(N)n1`, the GI50 in the assay with XF498, in the assay on KM-20L2 and in the assay with LXFL 529 was > 100 µM (inactive) in each case.

As to `CCCNC(=O)C(C)C1CCC2(C)C=CC(=O)C(C)=C2C1O` (stereo not drawn), the GI50 with DMS-114, with XF498 and in the assay on KM-20L2 was > 100 µM (inactive) throughout.

As to `CC1=C(C(=O)Nc2ccccc2C)C(c2ccc(Cl)c(Cl)c2)C(C(=O)Nc2ccccc2C)=C(C)N1`, the GI50 was 17.4 µM (inactive) in the assay with DMS-114; 26.2 µM (inactive) with XF498; 16.1 µM (inactive) in the assay with KM-20L2; 14.4 µM (inactive) in the assay with LXFL 529; 19.8 µM (inactive) in the assay on RXF 631.

In the case of `NCCCCNCCCNC(=O)c1nc(-c2nc(CCN)sc2Cl)sc1Cl`, the GI50 in the assay with DMS-114 was 18.8 µM (inactive); in the assay with XF498 it was > 100 µM (inactive); in the assay on KM-20L2, > 100 µM (inactive); with LXFL 529 it was 3.46 µM (inactive).

`C#C[C@H](CCCC)OC(=O)N[C@H](C)c1ccccc1`: the GI50 was 28.2 µM (inactive) with DMS-114; 84.1 µM (inactive) in the assay with XF498; 66.5 µM (inactive) in the assay with KM-20L2; 36.3 µM (inactive) in the assay with LXFL 529; 62.1 µM (inactive) in the assay with RXF 631.

For the molecule `COC(=O)/C=c1\s/c(=C\C(=O)OC)c2ccccc12`, the GI50 in the assay on DMS-114, in the assay with KM-20L2, with LXFL 529 and with RXF 631 was > 100 µM (inactive) in each case.

Turning to `CCCCCC[N+](C)(C)Cc1ccc(C[N+](C)(C)CCCCCC)cc1`, the GI50 in the assay with DMS-114 was 1.75 µM (inactive); in the assay with KM-20L2, 6.56 µM (inactive); in the assay with LXFL 529, 3.33 µM (inactive).

For the molecule `CC(=O)Nc1cccc2[nH]c3ccccc3c(=O)c12`, the GI50 was 25.6 µM (inactive) in the assay on DMS-114, 23.1 µM (inactive) in the assay with XF498, 21.1 µM (inactive) in the assay on KM-20L2 and 27 µM (inactive) with RXF 631.

Consider `CC12CCC3C(CCC4=CC(O)CCC43C=O)C1(O)CCC2c1ccc(=O)oc1` (stereo not drawn), for which the GI50 in the assay on DMS-114 is 0.0014 µM (active); in the assay on KM-20L2, 0.00832 µM (active).

On to `CCNCCCCNCC`, for which the GI50 in the assay on DMS-114 is > 3600 µM (inactive); with XF498 it was > 3750 µM (inactive); with KM-20L2 it was > 2090 µM (inactive).

As to `CC1=N/C(=C/c2ccc3c(c2)OCO3)C(=O)O1`, the GI50 in the assay with DMS-114, in the assay with XF498, in the assay on KM-20L2, with LXFL 529 and in the assay with RXF 631 was > 100 µM (inactive) each time.

As to `COc1ccc2c(c1)O[C@H]1c3ccc(O)cc3OC[C@@H]21`, the GI50 was 20.5 µM (inactive) in the assay on XF498, 31.6 µM (inactive) in the assay with KM-20L2, 25.4 µM (inactive) in the assay with LXFL 529 and 31.8 µM (inactive) in the assay with RXF 631.

With `CC(=O)OC(C)C(=O)C1c2cccc(O)c2C(=O)c2c(O)cc(C)cc21` (stereo not drawn), the GI50 is 0.188 µM (active) with DMS-114, 0.234 µM (active) with XF498 and 1.37 µM (inactive) in the assay with KM-20L2.

In the case of `COc1ccc2c(c1)c(=O)c1ccccc1n2/C=C/C(=O)O`, the GI50 in the assay with DMS-114 was > 83.6 µM (inactive); in the assay with XF498, > 100 µM (inactive); with KM-20L2, 26.7 µM (inactive); in the assay with LXFL 529, > 100 µM (inactive).

On to `Cc1cc(N(CCC#N)CCC#N)ccc1/N=N/c1cc(Cl)ccc1Cl`, for which the GI50 with DMS-114 was 6.59 µM (inactive); with LXFL 529, 1.7 µM (inactive).

In the case of `COc1cccc(/C=C/C(=O)c2sc(C(N)=S)nc2C)c1O`, the GI50 with DMS-114 is 50.6 µM (inactive); with XF498 it was > 100 µM (inactive); in the assay on KM-20L2 it was > 100 µM (inactive); in the assay on LXFL 529, 14.3 µM (inactive); with RXF 631, 31.1 µM (inactive).

As to `CC(=O)NC(CCCNC(=O)N(C)N=O)C(=O)NCc1ccccc1` (stereo not drawn), the GI50 with DMS-114, in the assay on XF498, in the assay with KM-20L2, with LXFL 529 and with RXF 631 was > 100 µM (inactive) throughout.

Consider `CC1OC(n2cc(F)c(=O)[nH]c2=O)CCC1O` (stereo not drawn), for which the GI50 was > 100 µM (inactive) in the assay with MDA-MB-435; 95.1 µM (inactive) in the assay on KM-20L2; > 100 µM (inactive) in the assay on MDA-MB-231; > 100 µM (inactive) in the assay on LXFL 529; > 77.6 µM (inactive) with DU-145; 91.2 µM (inactive) in the assay with MDA-N.

Regarding `COc1ccc2oc(-c3cccnc3)cc(=O)c2c1`, the GI50 in the assay on DMS-114 is 80.7 µM (inactive); with XF498 it was 95.1 µM (inactive); in the assay on LXFL 529, 71.6 µM (inactive); in the assay on RXF 631 it was 52.7 µM (inactive).

For the molecule `COc1ccc(/C=c2/s/c(=C(\C#N)c3nc4ccccc4[nH]3)n(-c3ccccc3)c2=O)cc1`, the GI50 is 91 µM (inactive) in the assay on DMS-114; 30.1 µM (inactive) in the assay on XF498; 31.8 µM (inactive) in the assay on MDA-MB-435; > 100 µM (inactive) in the assay with KM-20L2; 18.7 µM (inactive) in the assay on MDA-MB-231; 2.32 µM (inactive) in the assay with LXFL 529. Also, the figures for the GI50 with DU-145 and with MDA-N were 94.6 µM (inactive) and 30.8 µM (inactive), respectively.

Consider `Cc1ccc2oc(=O)c(-c3ccccc3)nc2c1`, for which the GI50 in the assay with XF498 was 33.7 µM (inactive).

Consider `CCC(C)C(=O)c1c(O)c(C/C=C(\C)CCC=C(C)C)c(O)c2c(C(O)CC)cc(=O)oc12` (stereo not drawn), for which the GI50 with DMS-114 is 0.498 µM (active); in the assay with XF498, 1.82 µM (inactive); in the assay with KM-20L2 it was 1.23 µM (inactive); in the assay on LXFL 529 it was 1.16 µM (inactive); with RXF 631 it was 1.74 µM (inactive).

Regarding `[N-]=[N+]=CC(=O)CCC(NC(=O)C(CCC(=O)C=[N+]=[N-])NC(=O)CCC(N)C(=O)O)C(=O)O` (stereo not drawn), the GI50 in the assay on DMS-114, with XF498 and with KM-20L2 was > 100 µM (inactive) throughout.

Regarding `Cc1cc(O)nc(NNC(C#N)c2ccc(O)cc2)n1` (stereo not drawn), the GI50 in the assay on DMS-114, in the assay on KM-20L2 and in the assay on LXFL 529 was > 100 µM (inactive) each time.

As to `COc1ccc2nc3c(C(=O)NCCN(C)C)cccc3cc2c1`, the GI50 with DMS-114 is 1.91 µM (inactive); in the assay on XF498, 1.85 µM (inactive); in the assay with KM-20L2, 0.562 µM (active).

With `CCCc1[nH]c2ccccc2c1-c1c(CCC)[nH]c2ccccc12`, the GI50 was 11.9 µM (inactive) in the assay on MDA-MB-435, 15.3 µM (inactive) in the assay with MDA-MB-231, 11.3 µM (inactive) in the assay with DU-145 and 7.96 µM (inactive) in the assay on MDA-N.

In the case of `Cc1ccc(S(=O)(=O)N(c2ccccc2F)C2CCCCC2O)cc1` (stereo not drawn), the GI50 in the assay on MDA-MB-435 was 19.4 µM (inactive); with MDA-MB-231, 77.6 µM (inactive); in the assay with DU-145 it was 24.9 µM (inactive); with MDA-N it was 19.9 µM (inactive).

For `Cc1cccc(NC(=S)N/N=C2\C(=O)Nc3ccccc32)c1`, the GI50 with MDA-MB-435 is 80.4 µM (inactive); in the assay on MDA-MB-231, > 100 µM (inactive); in the assay with DU-145 it was 14.1 µM (inactive); with MDA-N, > 100 µM (inactive).

Consider `COC(=O)C1(F)C(=O)NC(=O)NC1O` (stereo not drawn), for which the GI50 in the assay on MDA-MB-435, with MDA-MB-231, in the assay with DU-145 and with MDA-N was > 100 µM (inactive) throughout.

Take `COc1ccc2cc(CN3CCC(C4CCN(Cc5ccc6cc(OC)ccc6c5)CC4)CC3)ccc2c1`: the GI50 in the assay with MDA-MB-435 is 1.69 µM (inactive); in the assay with MDA-MB-231 it was 2.52 µM (inactive); in the assay with DU-145, 6.21 µM (inactive); in the assay with MDA-N it was 2.04 µM (inactive).

Consider `CN(C)CCC1(C2=CCCC2)CC/C(=C\c2ccccc2)C1=O` (stereo not drawn), for which the GI50 in the assay on DMS-114 was 16.1 µM (inactive); in the assay on KM-20L2, 13.1 µM (inactive); in the assay on LXFL 529, 16.1 µM (inactive).

For `O=C(NCCNCCO)N/N=C/c1cccc([N+](=O)[O-])c1`, the GI50 in the assay on DMS-114, with KM-20L2 and in the assay with LXFL 529 was > 100 µM (inactive) throughout.

With `C=C(Cl)C(Br)(CCl)CCC(Br)C(C)(C)Cl` (stereo not drawn), the GI50 was 3.57 µM (inactive) in the assay on MDA-MB-435, 1.64 µM (inactive) in the assay with MDA-MB-231, 13.7 µM (inactive) in the assay with DU-145 and 3.49 µM (inactive) in the assay with MDA-N.

Consider `CC1C2CC(C(C3C(=O)C4CC3C(C)(C)C4C)C2=O)C1(C)C` (stereo not drawn), for which the GI50 in the assay on MDA-MB-435, in the assay with MDA-MB-231, with DU-145 and in the assay on MDA-N was > 100 µM (inactive) throughout.

As to `COC(=O)C#CC(N)=O`, the GI50 was > 100 µM (inactive) in the assay with DMS-114, > 31.6 µM (inactive) with KM-20L2, > 100 µM (inactive) in the assay on LXFL 529 and > 100 µM (inactive) in the assay on RXF 631.

As for `CCOC(=O)C(SCCO)C(C(=O)OCC)n1ccc(=O)[nH]c1=O` (stereo not drawn), the GI50 was 22.4 µM (inactive) with MDA-MB-435, 35.8 µM (inactive) with MDA-MB-231, > 100 µM (inactive) in the assay with DU-145 and 34.8 µM (inactive) in the assay on MDA-N.

Consider `NC(Cc1cc(I)c(O)c(I)c1)C(=O)O` (stereo not drawn), for which the results for the GI50 with DMS-114, in the assay with XF498 and in the assay with KM-20L2 were 185 µM (inactive), > 348 µM (inactive) and > 500 µM (inactive), respectively.
